Patent US8404265B2, “Contact lenses for extended release of bioactive agents containing diffusion attenuators” (University of Florida Research Foundation, Inc., priority 2008, dated 2013)
Each block holds one compound with its values, some of them ahead of it.

Assays:
Format in all cases: physicochemical
[1] = Solubility of DX
Experimental: For various drug loading methods, the mass of drug released at various time increments was divided by the total drug released at long time and plotted as a function of time. […] A DX-ethanol solution of equivalent concentration as the DX-PBS, 0.08 mg/ml as that of DX-PBS solution was used to allow direct comparison of the two loading modes, although a saturated DX in ethanol is about 1 mg/ml. […] For these lenses, there is not much difference in the total release amount of DX from the lenses soaked in DX-PBS solution for two different soaking times, but slower DX release is observed from lenses that were soaked for 7 days than that for 24 hours. […] For total release amount of DX, PureVision™ and ACUVUE® OASYS™ lenses release relatively smaller amounts (about 28 μg and 35 μg, respectively) compared to the other three lenses (about 38-41 μg). There is no correlation between amount of drugs released and the water content, which is likely because the hydrophobic drugs are expected to partition in the silicone rich phases, and so the partition coefficients in the gels will be mainly influenced by the silicone composition of the lenses. All the lenses soaked in DX-ethanol solution release substantially low amount of DX (2-8 μg). […]

[2] = Diffusivity ratio from slope of % release versus square root of time; conditions: pure lenses
From the text: FIG. 31 plots % drugs release by Vitamin E loaded lenses as a function of the square root of time, for DX, timolol, fluzonazole and DXP. The lines of FIG. 31 are best fit straight lines over short time release data having R^2 larger than 0.98. […] The straight lines can be expressed by the equation:
[formula] where Mt is the mass of drug released at time t, M∞ the mass of drug release as time approaches infinity and for perfect sink condition M∞=M0 (initial drug loading). Therefore, from the slope of the straight line in FIG. 31, diffusivities of drug in the Vitamin E loaded lens can be determined if the mean lens thickness is known. The slope for DX, timolol, fluzonazole and DXP release is plotted versus Vitamin E loading in FIG. 32A-D. The slope decreases as Vitamin E loading increases for all lenses for all drugs release, which means (√{square root over (D)}/h) decreases. […] The h also increases as Vitamin E loading increases and lens expands symmetrically for all expansion axes (isotropic expansion) as described above. The increase of h might be 6.8% for hydrated O2OPTIX lens with 34% Vitamin E loading from FIG. 5B. Consequently, √{square root over (D)} is 39.5% of that of pure lens, i.e., D of DX in the 34% Vitamin E loaded O2OPTIX lens is 15% of that of the vitamin free (pure) lens. […]

[3] = DX uptake, release and partition coefficient, Vitamin E loaded lenses; conditions: release from Vitamin E loaded lenses
Experimental: Drug containing Vitamin E loaded lenses were prepared by directly adding drug to a Vitamin E-ethanol solution before soaking the pure lens in the solution, or by soaking a Vitamin E loaded lens in a drug-PBS solution. Drug containing Vitamin E-ethanol solutions were prepared by dissolving the drug in 3 ml of a Vitamin E-ethanol solution and then pure lens were soaked in this drug/Vitamin E-ethanol for 24 hours. The drug containing Vitamin E-ethanol lenses were taken from the solution blotted with wipes and dried overnight before subsequent release experiments.
For PureVision™ lens loaded with Vitamin E, only three different Vitamin E loadings were examined since the effect of Vitamin E loading on drug transport is minimal compared to other lenses. The insets in FIG. 21 show plots for drug release for the initial hours. Vitamin E was loaded in the lens, the lens were dried and DX was loaded in the Vitamin E loaded lens by soaking the lens in the DX-PBS solutions. […] DX loading time is relatively long for ACUVUE® OASYS™ lenses and relatively short for PureVision™ lenses relative to that of NIGHT&DAY™ and O2OPTIX lenses for similar Vitamin E loadings regardless of the level of Vitamin E loading.
For loading, an experimentally determined partition coefficient of drug in the Vitamin E loaded lens (K) is defined as: […]

concentration of nearly saturated DX-PBS solution ([1]; PBS, room temperature): ~80 µg/mL | saturated DX in ethanol ([1]; ethanol): about 1 mg/ml
Compound: C[C@@H]1C[C@H]2[C@@H]3CCC4=CC(=O)C=C[C@]4(C)[C@@]3(F)[C@@H](O)C[C@]2(C)[C@@]1(O)C(=O)CO [DX, dexamethasone]

D0 of timolol relative to D0 of DX [2]: about 3 factor
Compound: CC(C)(C)NC[C@H](O)COc1nsnc1N1CCOCC1 [timolol]

Compound: Vitamin E
Vitamin E in the release medium, PBS [3]: not detected
